Results on eight compounds are retold here after US7999107B2, “Substituted pyrano[2,3-B]pyridine derivatives as cannabinoid-1 receptor modulators” (Merck Sharp & Dohme Corp., priority 2007, dated 2011).

pEC50, pIC50: −log10 of the molar value. Read-outs that look alike come from different tables or passages of the source.

Broadly, the pIC50 is the IC50 on a negative log10 scale, so that one unit is a factor of ten. A word on the pEC50: it is −log10 of the EC50, conventionally taken in molar units.

Experiment [1] has as its target T1, recombinant human CB1 receptor (Homo sapiens, UniProt P21554).
T1 construct: expressed in transfected cells; host or cells: CHO cells (membranes)
As to the kind of experiment: Cannabinoid Receptor-1 (CB1) Binding Assay. How it is done:
Binding affinity determination is based on recombinant human CB1 receptor expressed in Chinese Hamster Ovary (CHO) cells (Felder et al, Mol. Pharmacol. 48: 443-450, 1995). Total assay volume is 250 μl (240 μl CB1 receptor membrane solution plus 5 μl test compound solution plus 5 μl [3H]CP-55940 solution). Final concentration of [3H]CP-55940 is 0.6 nM. Binding buffer contains 50 mM Tris-HCl, pH7.4, 2.5 mM EDTA, 5 mM MgCl2, 0.5 mg/mL fatty acid free bovine serum albumin and protease inhibitors (Cat#P8340, from Sigma). To initiate the binding reaction, 5 μl of radioligand solution is added, the mixture is incubated with gentle shaking on a shaker for 1.5 h at 30° C. The binding is terminated by using 96-well harvester and filtering through GF/C filter presoaked in 0.05% polyethylenimine. The bound radiolabel is quantitated using scintillation counter. Apparent binding affinities for various compounds are calculated from IC50 values (DeBlasi et al., Trends Pharmacol Sci 10: 227-229, 1989).

Experiment [2] concerns the target T2, recombinant human CB1 receptor expressed in CHO cells (Homo sapiens, UniProt P21554). In words: Cannabinoid Receptor-1 (CB1) Functional Activity Assay (cAMP). Type of experiment: cell-based. The settings on record: forskolin-stimulated cAMP. How it is done: The functional activation of CB1 receptor is based on recombinant human CB1 receptor expressed in CHO cells (Felder et al, Mol. Pharmacol. 48: 443-450, 1995). To determine the agonist activity or inverse agonist activity of any test compound, 50 ul of CB1-CHO cell suspension are mixed with test compound and 70 ul assay buffer containing 0.34 mM 3-isobutyl-1-methylxanthine and 5.1 uM of forskolin in 96-well plates. The assay buffer is comprised of Earle's Balanced Salt Solution supplemented with 5 mM MgCl2, 1 mM glutamine, 10 mM HEPES, and 1 mg/mL bovine serum albumin. The mixture is incubated at room temperature for 30 minutes, and terminated by adding 30 ul/well of 0.5M HCl. The total intracellular cAMP level is quantitated using the New England Nuclear Flashplate and cAMP radioimmunoassay kit.

The target in experiment [3] is T2, recombinant human CB1 receptor expressed in CHO cells. In words: Cannabinoid Receptor-1 (CB1) Functional Antagonist Assay. The settings on record: cAMP. Type of experiment: cell-based. How it is done:
To determine the antagonist activity of test compound, the reaction mixture also contains 0.5 nM of the agonist CP55940 (or 50 nM of methanandamide), and the reversal of the CP55940 (or methanandamide) effect is quantitated with increasing concentration of the test compound. Intracellular cAMP is determined as described above. An IC50 value for the test compound is calculated from the titration curve.
Alternatively, a series of dose response curves for the agonist CP55940 (or methanandamide) is performed with increasing concentration of the test compound in each of the dose response curves, and a Schild analysis is carried to calculate the Kb value which is an estimation of test compound binding affinity.

[4] abbreviates: [3H]CP-55940 0.6 nM, CHO cell membranes, read-out: CB1 binding IC50.

T1 sequence (P21554 whole entry): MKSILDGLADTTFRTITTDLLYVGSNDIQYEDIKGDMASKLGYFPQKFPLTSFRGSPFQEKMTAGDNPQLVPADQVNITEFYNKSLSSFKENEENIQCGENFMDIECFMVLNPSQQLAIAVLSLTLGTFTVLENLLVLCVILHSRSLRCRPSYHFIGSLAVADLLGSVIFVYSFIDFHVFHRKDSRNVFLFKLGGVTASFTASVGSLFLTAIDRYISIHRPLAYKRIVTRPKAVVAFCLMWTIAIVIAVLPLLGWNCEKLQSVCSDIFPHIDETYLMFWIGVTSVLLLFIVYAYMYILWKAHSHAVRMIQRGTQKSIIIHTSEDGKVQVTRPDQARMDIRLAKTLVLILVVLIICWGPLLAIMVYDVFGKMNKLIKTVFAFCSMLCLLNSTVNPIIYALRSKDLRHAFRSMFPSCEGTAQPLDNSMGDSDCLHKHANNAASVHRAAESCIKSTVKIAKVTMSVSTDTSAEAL
T2 sequence (P21554 whole entry): as above

Take `CC1(C)CC(Nc2ccccn2)c2cc(-c3ccc(Cl)cc3)c(-c3ccc(Cl)cc3Cl)nc2O1` (centres unmarked) [Example 245, 6-(4-Chlorophenyl)-7-(2,4-dichlorophenyl)-2,2-dimethyl-N-(pyridine-2-yl)-3,4-dihydro-2H-pyrano[2,3-b]pyridin-4-amine]: in experiment [1] (setting [4]), the pIC50 is 8.70. Also, the pEC50 in experiment [2] was more than 7.70. Also, in experiment [3], the “functional character at CB1” value is recorded as “functional inverse agonists”.

`CC(C)(C)C1CC(=O)c2cc(-c3ccc(Cl)cc3)c(-c3ccccc3Cl)nc2O1` (centres unmarked) [Example 12, 2-tert-Butyl-7-(2-chlorophenyl)-6-(4-chlorophenyl)-2,3-dihydro-4H-pyrano[2,3-b]pyridin-4-one]: in experiment [1] (setting [4]), the pIC50 was 8.70. Besides, the pEC50 in experiment [2] was more than 7.70. Besides, the “functional character at CB1” value in experiment [3] is listed as “functional inverse agonists”.

In the case of `CNC(=O)C(=O)NC1CC(C)(C)Oc2nc(-c3ccc(Cl)cc3Cl)c(-c3ccc(Cl)cc3)cc21` (centres unmarked) [Example 66, N-[6-(4-Chlorophenyl)-7-(2,4-dichlorophenyl)-2,2-dimethyl-3,4-dihydro-2H-pyrano[2,3-b]pyridin-4-yl]-N′-methylethanediamide], in experiment [1] (setting [4]), the pIC50 was 8.70. Further, in experiment [2], the pEC50 is more than 7.70. In experiment [3], the “functional character at CB1” value is given as “functional inverse agonists”.

For `C[C@@H](O)C(=O)NC1CC(C)(C)Oc2nc(-c3ccc(Cl)cc3Cl)c(-c3ccc(Cl)cc3)cc21` (stereo partly drawn) [Example 96, (2R)-N-[6-(4-chlorophenyl)-7-(2,4-dichlorophenyl)-2,2-dimethyl-3,4-dihydro-2H-pyrano[2,3-b]pyridin-4-yl]-2-hydroxypropanamide], in experiment [3], the “functional character at CB1” value is “functional inverse agonists”.

Take `CN(C)C(=O)NC1CC(C)(C)Oc2nc(-c3ccc(Cl)cc3Cl)c(-c3ccc(Cl)cc3)cc21` (centres unmarked) [Example 111, N′-[6-(4-chlorophenyl)-7-(2,4-dichlorophenyl)-2,2-dimethyl-3,4-dihydro-2H-pyrano[2,3-b]pyridin-4-yl]-N,N-dimethylurea]: the pIC50 in experiment [1] (setting [4]) is 8.70. Moreover, the negative logarithm of the EC50 (pEC50) in experiment [2] was more than 7.70. Besides, the “functional character at CB1” value in experiment [3] is “functional inverse agonists”.

For `Cc1cc(C(=O)N[C@@H]2CC(C)(C)Oc3nc(-c4ccc(Cl)cc4Cl)c(-c4ccc(Cl)cc4)cc32)n[nH]1` [Example 327, N-[(4R)-6-(4-Chlorophenyl)-7-(2,4-dichlorophenyl)-2,2-dimethyl-3,4-dihydro-2H-pyrano[2,3-b]pyridin-4-yl]-5-methyl-1H-pyrazole-3-carboxamide], the “functional character at CB1” value in experiment [3] is recorded as “functional inverse agonists”.

As to `Cc1cc(NC2CC(C)(C)Oc3nc(-c4ccc(Cl)cc4Cl)c(-c4ccc(Cl)cc4)cc32)n[nH]1` (centres unmarked) [Example 246, 6-(4-Chlorophenyl)-7-(2,4-dichlorophenyl)-2,2-dimethyl-N-(5-methyl-1H-pyrazol-3-yl)-3,4-dihydro-2H-pyrano[2,3-b]pyridin-4-amine], the pIC50 in experiment [1] (setting [4]) is 8.00. Besides, the pEC50 in experiment [2] was more than 7.70. Also, the “functional character at CB1” value in experiment [3] was “functional inverse agonists”.

Regarding `O=C1CC2(CCCCC2)Oc2nc(-c3ccccc3Cl)c(-c3ccc(Cl)cc3)cc21` [Example 4, 7′-(2-Chlorophenyl)-6′-(4-chlorophenyl)spiro[cyclohexane-1,2′-pyrano[2,3-b]pyridin]-4′(3′H)-one], in experiment [1], the pIC50 is 8.10. Moreover, the pEC50 in experiment [2] is more than 7.70. The “functional character at CB1” value in experiment [3] is “functional inverse agonists”.
